Assays:
GSK3β = experiment: Western blot of phospho-GSK3β (Ser 9); format: cell-based, human; details: LNCaP and PC-3-GFP cells, 40 μM α-TEA
Text: Previous studies have shown that α-TEA is an effective inducer of apoptosis in human prostate cancer cells (Anderson et al., 2004). Dose- and time-dependent pro-apoptotic effects of α-TEA in prostate cancer cells are mediated by Fas/FADD/caspase-8/tBid and Fas/Daxx/Ask1/JNK1/2/Bax, leading to activation of caspases-9 and -3. Thus, the Akt inhibiting activity of α-TEA was investigated in prostate cancer cells. Since phosphorylation of Akt at Ser 473 is required for its full activation (Cheng et al., 2005), we examined the phosphorylation status of Akt using an antibody that specifically recognizes Akt phosphorylated at Ser 473 in all three Akt isoforms (Upstate Cell Signaling Solutions (Charlottesville, Va.)). α-TEA decreased the levels of the phosphorylated forms of Akt. […] As verification that the decreases in phosphorylation status of Akt correlated with decreased kinase activity, the phosphorylation status of GSK3β, a downstream Akt target, was evaluated following α-TEA treatments. […] GAPDH levels were assayed with each immunoblot assay as a protein loading control.
Akt antibodies for the foregoing studies (Akt, Akt1, Akt2, Akt and phospho-Akt) as well as GSK3β and phospho-GSK3β antibodies were purchased from Cell Signaling Technology (Beverly, Mass.).

[1] = system: human MDA-MB-435 breast cancer cells; details: preclinical xenograft model transplanted with human MDA-MB-435 breast cancer cells (Zhang et al., 2004); cited from earlier work
survivin = experiment: Survivin protein level by immunoblot; format: cell-based, human; details: LNCaP and PC-3-GFP cells, 40 μM α-TEA, time-dependent
Text: Antibodies to human Flip and survivin used in these experiments were purchased from Santa Cruz Biotechnology (Santa Cruz, Calif.).

Q: Which results are given for `Cc1c(C)c2c(c(C)c1OCC(=O)O)CC[C@@](C)(CCC[C@H](C)CCC[C@H](C)CCCC(C)C)O2` [α-TEA]?
A: phosphorylation status of pGSK3β (at Ser 9) (GSK3β): Decreases; blood vessel density [1]: significantly reduce blood vessel density; protein levels of survivin (survivin): downregulated

From patent US20100292316A1, “IMPROVED THERAPEUTIC METHODS AND COMPOSITIONS COMPRISING CHROMAN RING COMPOUNDS” (Research Development Foundation, priority 2007, published 2010)
